Assay results as given in BindingDB's records for doi:10.1016/j.bmcl.2004.11.051 (Merck Frosst Centre For Therapeutic Research, 2005).

Key:
[1] = target: Prostaglandin E2 receptor EP4 subtype (Homo sapiens, UniProt P35408); assay: Binding affinity for human prostanoid EP4 receptor
[2] = target: Prostaglandin E2 receptor EP2 subtype (Homo sapiens, UniProt P43116); assay: Binding affinity for human prostanoid EP2 receptor
[3] = target: T1, Prostaglandin E2 receptor EP3 subtype (Homo sapiens, UniProt P43115); assay: Binding affinity for human prostanoid EP3 receptor
T1 sequence (P43115 whole entry): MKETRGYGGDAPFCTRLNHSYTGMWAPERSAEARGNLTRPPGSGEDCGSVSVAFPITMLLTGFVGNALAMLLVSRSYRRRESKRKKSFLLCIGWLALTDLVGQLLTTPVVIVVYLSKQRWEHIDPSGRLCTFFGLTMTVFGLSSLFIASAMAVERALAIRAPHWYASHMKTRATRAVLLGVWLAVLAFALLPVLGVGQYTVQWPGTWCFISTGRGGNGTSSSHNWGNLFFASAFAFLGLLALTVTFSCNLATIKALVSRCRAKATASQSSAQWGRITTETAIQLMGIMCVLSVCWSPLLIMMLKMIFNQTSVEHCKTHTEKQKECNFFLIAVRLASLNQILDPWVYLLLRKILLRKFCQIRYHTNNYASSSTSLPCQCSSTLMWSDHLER

Prostaglandin E2 receptor EP4 subtype, sequence (P35408 whole entry): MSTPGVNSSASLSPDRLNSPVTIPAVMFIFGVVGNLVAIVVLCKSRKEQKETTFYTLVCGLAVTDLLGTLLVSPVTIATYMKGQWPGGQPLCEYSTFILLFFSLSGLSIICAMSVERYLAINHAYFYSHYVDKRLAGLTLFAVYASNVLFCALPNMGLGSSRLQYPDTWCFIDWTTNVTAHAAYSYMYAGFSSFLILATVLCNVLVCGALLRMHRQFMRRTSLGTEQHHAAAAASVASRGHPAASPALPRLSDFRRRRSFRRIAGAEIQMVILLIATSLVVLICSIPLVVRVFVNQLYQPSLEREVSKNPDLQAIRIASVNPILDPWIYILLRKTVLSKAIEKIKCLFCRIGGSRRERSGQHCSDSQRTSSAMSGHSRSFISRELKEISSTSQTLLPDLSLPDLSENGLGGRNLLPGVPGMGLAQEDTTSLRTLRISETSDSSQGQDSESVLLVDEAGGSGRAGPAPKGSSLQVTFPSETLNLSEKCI
Prostaglandin E2 receptor EP2 subtype, sequence (P43116 whole entry): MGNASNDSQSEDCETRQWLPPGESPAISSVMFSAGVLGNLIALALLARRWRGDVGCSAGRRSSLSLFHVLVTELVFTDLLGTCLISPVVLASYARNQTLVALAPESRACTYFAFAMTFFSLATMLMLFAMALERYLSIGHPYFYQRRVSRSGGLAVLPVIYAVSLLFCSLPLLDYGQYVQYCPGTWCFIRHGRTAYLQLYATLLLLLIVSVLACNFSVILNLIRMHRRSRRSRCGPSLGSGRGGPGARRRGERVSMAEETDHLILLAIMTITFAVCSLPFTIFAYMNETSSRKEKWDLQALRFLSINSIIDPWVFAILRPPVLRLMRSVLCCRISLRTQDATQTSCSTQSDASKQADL

With Cc1cccc(C/C=C/c2ccccc2/C=C/C(=O)O)c1OCc1ccccc1 the Ki [1] was 2000 nM, the Ki [2] was 860 nM and the Ki [3] was 9 nM.
